Results taken from patent US20260262643A1, “HERBICIDAL BENZOXAZINES” (FMC CORPORATION, priority 2022, published 2026).

Experiments:
[1] = tested on: rice; test: Test B flooded paddy test; assay type: in vivo, Oryza sativa; details: Oryza sativa, 312 h; 250 g ai/ha, Flood, 13 days, 0 to 100 scale (0 no effect, 100 complete control); read-out: Plant response rating, Rice
How it was run: (§1)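 Visual scores from 0 (no effect) to 100 (complete kill) were assigned 13 days after treatment by comparison with controls. Seedlings had been treated at two leaves by adding compound to floodwater standing 3 cm deep, kept at that level in the greenhouse.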

[2] = tested on: corn; test: Test A postemergence; assay type: in vivo, Zea mays; details: Zea mays, post-emergence, 240 h, postemergence, 10 days, 0 to 100 scale (0 no effect, 100 complete control); for plant injury at 125 g/ha: 125 g ai/ha, read-out: Corn plant response rating; for Corn plant response rating (crop injury, 0 = no effect, 100 = complete kill) at 500 g/ha: 500 g ai/ha, visual injury
How it was run: (§2)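 Greenhouse pot test, 10 days. Compound (non-phytotoxic solvent, surfactant) sprayed on soil at seeding or on seedlings at one- to two-leaf stage. Visual injury rated 0–100 against untreated plants.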

[3] = tested on: blackgrass; test: Test A preemergence; assay type: in vivo, Alopecurus myosuroides; details: Alopecurus myosuroides, pre-emergence, 240 h, read-out: Plant response rating, Blackgrass; for pest or weed control at 125 g/ha: 125 g ai/ha, visual injury after 10 days, 0 to 100 scale, 0 is no effect, 100 is complete control; for pest or weed control at 500 g/ha: 500 g ai/ha, 0 to 100 scale (0 no effect, 100 complete control), 10 days
How it was run: as §2

[4] = tested on: foxtail, giant; test: Test A postemergence; assay type: in vivo, Setaria faberi; details: Setaria faberi, post-emergence, 240 h, postemergence, 10 days, 0 to 100 scale (0 no effect, 100 complete control); for pest or weed control at 125 g/ha: 125 g ai/ha, read-out: Foxtail, Giant plant response rating; for pest or weed control at 500 g/ha: 500 g ai/ha, visual injury, read-out: Plant response rating, Foxtail, Giant
How it was run: as §2

[5] = tested on: goosegrass; test: Test A preemergence; assay type: in vivo, Eleusine indica; details: Eleusine indica, pre-emergence, 240 h, read-out: Plant response rating, Goosegrass; for pest or weed control at 125 g/ha: 125 g ai/ha, visual injury after 10 days, 0 to 100 scale, 0 is no effect, 100 is complete control; for pest or weed control at 500 g/ha: 500 g ai/ha, 0 to 100 scale (0 no effect, 100 complete control), 10 days
How it was run: as §2

[6] = tested on: soybean; test: Test A preemergence; assay type: in vivo, Glycine max; details: Glycine max, pre-emergence, 240 h, read-out: Plant response rating, Soybean; for plant injury at 125 g/ha: 125 g ai/ha, visual injury after 10 days, 0 to 100 scale, 0 is no effect, 100 is complete control; for plant injury at 500 g/ha: 500 g ai/ha, 0 to 100 scale (0 no effect, 100 complete control), 10 days
How it was run: as §2

[7] = tested on: ragweed; test: Test A preemergence; assay type: in vivo, Ambrosia artemisiifolia; details: Ambrosia artemisiifolia, pre-emergence, 240 h, read-out: Plant response rating, Ragweed; for pest or weed control at 125 g/ha: 125 g ai/ha, visual injury after 10 days, 0 to 100 scale, 0 is no effect, 100 is complete control; for pest or weed control at 500 g/ha: 500 g ai/ha, 0 to 100 scale (0 no effect, 100 complete control), 10 days
How it was run: as §2

[8] = tested on: kochia; test: Test A postemergence; assay type: in vivo, Bassia scoparia; details: Bassia scoparia, post-emergence, 240 h, postemergence, 10 days, 0 to 100 scale (0 no effect, 100 complete control); for pest or weed control at 125 g/ha: 125 g ai/ha, read-out: Kochia plant response rating; for pest or weed control at 500 g/ha: 500 g ai/ha, visual injury, read-out: Plant response rating, Kochia
How it was run: as §2

[9] = tested on: sedge, umbrella; test: Test B flooded paddy test; assay type: in vivo, Cyperus difformis; details: Cyperus difformis, 312 h; 250 g ai/ha, Flood, 13 days, 0 to 100 scale (0 no effect, 100 complete control); read-out: Plant response rating, Sedge, Umbrella
How it was run: as §1

[10] = tested on: goosegrass; test: Test A postemergence; assay type: in vivo, Eleusine indica; details: Eleusine indica, post-emergence, 240 h, postemergence, 10 days, 0 to 100 scale (0 no effect, 100 complete control); for pest or weed control at 125 g/ha: 125 g ai/ha, read-out: Goosegrass plant response rating; for pest or weed control at 500 g/ha: 500 g ai/ha, visual injury, read-out: Plant response rating, Goosegrass
How it was run: as §2

[11] = tested on: barnyardgrass; test: Test B flooded paddy test; assay type: in vivo, Echinochloa crus-galli; details: Echinochloa crus-galli, 312 h, 250 g ai/ha, Flood, 13 days, 0 to 100 scale (0 no effect, 100 complete control); read-out: Plant response rating, Barnyardgrass
How it was run: as §1

[12] = tested on: pigweed, palmer; test: Test A postemergence; assay type: in vivo, Amaranthus palmeri; details: Amaranthus palmeri, post-emergence, 240 h, postemergence, 10 days, 0 to 100 scale (0 no effect, 100 complete control); for pest or weed control at 125 g/ha: 125 g ai/ha, read-out: Pigweed, Palmer plant response rating; for pest or weed control at 500 g/ha: 500 g ai/ha, visual injury, read-out: Plant response rating, Pigweed, Palmer
How it was run: as §2

[13] = tested on: ryegrass, Italian; test: Test A postemergence; assay type: in vivo, Lolium multiflorum; details: Lolium multiflorum, post-emergence, 240 h, postemergence, 10 days, 0 to 100 scale (0 no effect, 100 complete control); for pest or weed control at 125 g/ha: 125 g ai/ha, read-out: Ryegrass, Italian plant response rating; for pest or weed control at 500 g/ha: 500 g ai/ha, visual injury, read-out: Plant response rating, Ryegrass, Italian
How it was run: as §2

[14] = tested on: galium; test: Test A postemergence; assay type: in vivo, Galium aparine; details: Galium, post-emergence, 240 h, postemergence, 10 days, 0 to 100 scale (0 no effect, 100 complete control); for pest or weed control at 125 g/ha: 125 g ai/ha, read-out: Galium plant response rating; for pest or weed control at 500 g/ha: 500 g ai/ha, visual injury, read-out: Plant response rating, Galium
How it was run: as §2

Compound	plant injury at 250 g/ha [1]	plant injury at 125 g/ha [2]	Corn plant response rating (crop injury, 0 = no effect, 100 = complete kill) at 500 g/ha [2]	pest or weed control at 125 g/ha [3]	pest or weed control at 500 g/ha [3]	pest or weed control at 125 g/ha [4]	pest or weed control at 500 g/ha [4]	pest or weed control at 125 g/ha [5]	pest or weed control at 500 g/ha [5]	plant injury at 125 g/ha [6]	plant injury at 500 g/ha [6]	pest or weed control at 125 g/ha [7]	pest or weed control at 500 g/ha [7]	pest or weed control at 125 g/ha [8]	pest or weed control at 500 g/ha [8]	pest or weed control at 250 g/ha [9]	pest or weed control at 125 g/ha [10]	pest or weed control at 500 g/ha [10]	pest or weed control at 250 g/ha [11]	pest or weed control at 125 g/ha [12]	also measured
C[C@H]1CN(C(=O)c2cccc(-n3cnc(C4CCC4)n3)c2)c2cccc(Cl)c2O1 [Compound 93, [(2S)-8-Chloro-2,3-dihydro-2-methyl-4H-1,4-benzoxazin-4-yl][3-(3-cyclobutyl-1H-1,2,4-triazol-1-yl)phenyl]methanone]	0%	60%	90%	80%	90%	60%	90%	90%	100%	30%	30%	0%	0%	80%	90%	0%	20%	70%	0%	90%	pest or weed control at 500 g/ha [12]: 100%; pest or weed control at 125 g/ha [13]: 30%; pest or weed control at 500 g/ha [13]: 90%; pest or weed control at 125 g/ha [14]: 100%; pest or weed control at 500 g/ha [14]: 100%
CCc1ccc(-n2cnc(C(C)C)n2)cc1C(=O)N1C[C@H](C)Oc2c(Cl)cccc21 [Compound 94, [(2S)-8-Chloro-2,3-dihydro-2-methyl-4H-1,4-benzoxazin-4-yl][2-ethyl-5-[3-(1-methylethyl)-1H-1,2,4-triazol-1-yl]phenyl]methanone]	0%	80%	90%	90%	90%	90%	90%	100%	100%	50%	100%	0%	0%	100%	100%	98%	60%	90%	30%	90%	pest or weed control at 500 g/ha [12]: 90%; pest or weed control at 125 g/ha [13]: 50%; pest or weed control at 500 g/ha [13]: 90%; pest or weed control at 125 g/ha [14]: 100%; pest or weed control at 500 g/ha [14]: 100%
Cc1ccc(-n2cnc(C3CCC3)n2)cc1C(=O)N1C[C@H](C)Oc2c(Cl)cccc21 [Compound 96, [(2S)-8-Chloro-2,3-dihydro-2-methyl-4H-1,4-benzoxazin-4-yl][5-(3-cyclobutyl-1H-1,2,4-triazol-1-yl)-2-methylphenyl]methanone]	0%	10%	60%	40%	80%	90%	90%	100%	100%	50%	50%	30%	30%	90%	100%	98%	30%	60%	60%	90%	pest or weed control at 500 g/ha [12]: 90%; pest or weed control at 125 g/ha [13]: 50%; pest or weed control at 500 g/ha [13]: 100%; pest or weed control at 125 g/ha [14]: 100%; pest or weed control at 500 g/ha [14]: 100%
COCc1ncn(-c2cccc(C(=O)N3C[C@H](C)Oc4c(C)cccc43)c2)n1 [Compound 101, [(2S)-2,3-Dihydro-2,8-dimethyl-4H-1,4-benzoxazin-4-yl][3-[3-(methoxymethyl)-1H-1,2,4-triazol-1-yl]phenyl]methanone]	0%	70%	80%	50%	90%	90%	90%	90%	100%	20%	40%	0%	20%	70%	80%	85%	50%	80%	15%	50%	pest or weed control at 500 g/ha [12]: 60%; pest or weed control at 125 g/ha [13]: 60%; pest or weed control at 500 g/ha [13]: 60%; pest or weed control at 125 g/ha [14]: 50%; pest or weed control at 500 g/ha [14]: 90%
